Results from patent US11020392B2, “Use of trimetazidine as a hepatoprotective medicine in prevention and treatment of liver diseases and conditions” (Martin Pharmaceuticals, Inc., priority 2015, dated 2021).

Legend:
[1] = system: patients with liver failure / serious hepatitis; test: Clinical cases: individual patients given oral TMZ on top of combined treatment; format: in vivo, human
Source text: Case 1: The patient had past positive HBsAg for over 20 years, during which they took multiple reexaminations of liver function and, as the results of all color ultrasound examinations were within normal range, they were not given any special treatment. Three months before, after catching cold and overwork, they developed abdominal distension and yellow urine, and was admitted to hospital following aggravation of the condition over 6 days. On admission, they were complicated with massive seroperitoneum and serious xanthochromia throughout the skin and mucosa of their whole body, feeling serious nausea, anorexia and feebleness.
Case 2: had had yellow urine for 25 days and dry mouth and bitter taste in mouth for 10 days before they came to the First Affiliated Hospital of Zhengzhou University. […] If they had been treated with the original approach, it would probably have taken two months before they could be discharged from hospital.
Case 3: had past positive HBsAg for 8 years, without regular treatment or periodic reexamination of relevant indicators. […] They took orally some “stomach medicine” (specific medicine not known) with poor effect. After the aforesaid symptoms aggravated for half a month, with urine turning as yellow as strong tea water, they were admitted to the First Affiliated Hospital of Zhengzhou University on Jan. 21, 2015. […] In merely 12 days, the patient achieved decrease of transaminase by dozens of times, relief from the critical condition, alleviated hepatocyte inflammatory responses and a favorable condition for liver cells, and greatly shortened length of hospitalization.
Case 4: […] They felt abdominal distension and nausea, accompanied with hydroncus in lower limbs, when they were tired half a month ago. For further treatment, they were admitted to the First Affiliated Hospital of Zhengzhou University on Jan. 13, 2015. Color ultrasound examination of abdomen detected diffuse changes of echo patterns of liver, cholecystolithiasis and cholecystitis. […] The patient's liver enzyme decreased to normal level after a short period, meeting the requirements for a surgical operation. Following the operation, their abdominal pain disappeared, with liver enzyme back to normal level and improved appetite. Their quality of life improves now without any discomfort.
Case 5: had past positive HBsAg for over 10 years, with HBsAg (+), HBeAg (+) and HBcAb (+), and had atrial fibrillation over 5 years, during which they orally took traditional Chinese medicine intermittently, but without regular treatment. They complained of feebleness, nausea, dry mouth and bitter taste, and anorexia for 6 days, and was hospitalized on Jan. 31, 2015. After admission, they had ALT 1881 u/L, AST 699 u/L, and prothrombin time activity (PTA) at 26%. The patient was extremely weak, in very poor spirits, with very poor appetite. A notice of critical illness diagnosis was given. […] The patient achieved a rapid decrease of transaminase and obvious improvement of liver synthesis function, and was safe from the critical condition. They continued to take the medicine till maturity of the treatment course, to improve the hepatocyte microcirculation and excretion of bilirubin. The patient soon recovered and left hospital.

[2] = system: liver of liver failure patients; test: PET-CT imaging of liver FDG uptake before and after treatment; format: in vivo, human; settings: liver failure patient(s), after vs before treatment; FIG. 4
Source text: Intriguingly, we were able to compare the PET-CT images before and after liver failure recovery in two participants who underwent PET-CT imaging due to suspicious liver lesions by magnet renascence imaging.

SD rats = test: Hyperammonemia rat model (oral ammonium chloride, 30 days); format: in vivo; settings: OA (LOLA) 0.8 g/kg, TMZ 0.002 g/kg orally, or both; FIG. 8
Source text: All five groups of rats were sacrificed after 30 days with pentobarbital anesthesia. Cardiac blood samples were collected to test blood levels of ammonia, ALT and AST. Liver biopsy specimens were collected and subject to hematoxylin-eosin (HE) staining and TUNEL staining to assess pathology.

Chang liver cells = format: cell-based; settings: 10 mM NH4Cl; 1 mM LOLA, 1 mM TMZ, or 1 mM TMZ+1 mM LOLA; hypoxic (10% O2); FIG. 7
Description: Chang liver cells (American Type Culture Collection No. CCL-13) was cultured in RPMI1640 medium (Solarbio) containing 10% fetal bovine serum (Gibco), 100 u/mL penicillin and 100 μg/mL […], at 37° C. and under hypoxic conditions (10% O2, 5% CO2) and saturated humidity.

liver failure patients [3] = test: Clinical cohort study of trimetazidine in hepatic failure patients (ALT/AST decrease, TMZ vs DCA); format: in vivo, human; settings: after 5 days of treatment, both groups also on basic treatment incl. LOLA, FIG. 2
Source text: The single-center cohort study was adopted as the clinical trial method.
In accordance with relevant references and the results of previous trials, the number of cases shall be no less than 50. Taking into account the number of loss to follow up and possible drop-out (to be controlled around 10%), 60 cases are required to be selected (30 cases for the trial group and 30 cases for the control group).
All serious hepatitis patients enrolled between Aug. 19, 2014 and […] were put in the control group; and all those enrolled between December 9 and the application date were in the trial group.
2. Exclusion Criteria • Patients under 18 or over 70 years old; • Patients diagnosed with shock liver (ischemic liver disease); • Patients with liver failure in pregnancy or HELLP syndrome; • Patients with liver failure secondary to malignant tumor in the liver; • Patients with refractory hypotension • Patients with septic shock; • Patients about to receive liver transplant (within 8 hours); • Patients allergic to trimetazidine drug; • Patients […] of trimetazidine drug; • Abuser of drugs and/or alcohol; • Pregnant or lactation women; • Patients with recent myocardial infarct (within half a year); • Patients with serious renal inadequacy.
2. Control group: Diisopropylamine Dichloroacetate (DCA) (80 mg/D) for the control group in this trial, provided by Dandong Yichuang Pharmaceutical Co., Ltd, for a 4-week course of treatment.
3. Both trial group and control group were also given basic treatment to meet ethical requirements. […] HBV-related liver failure patients were also treated with lamivudine.
1. Alanine aminotransferase (ALT), tested by chromatometry, with products provided by Roche Diagnostics (Shanghai) Ltd.
2. Aspartate transaminase (AST), tested by chromatometry, with products provided by Roche Diagnostics (Shanghai) Ltd.

liver failure patients [4] = test: Large-scale randomized clinical trial, 165 liver failure patients (control, LOLA, TMZ+LOLA)
Source text: We recruited totally 298 patients with liver failure according to the American and European criteria.

Row | Molecule | ALT ([1]; Case 1, HBsAg positive person, 12 days of TMZ one tablet three times a day plus combined treatment, ALT 270 u/L at admission) [u/L] | AST ([1]; Case 1, 12 days of TMZ, AST 303 u/L at admission) [u/L] | ALT ([1]; Case 2, serious drug-induced hepatitis, oral TMZ 20 days plus combined treatment, ALT 983 u/L at admission) [u/L] | total bilirubin ([1]; Case 2, oral TMZ 20 days, 401.9 umol/L at admission) [µmol/L] | AST ([1]; Case 2, oral TMZ 20 days, AST 484 u/L at admission) [u/L] | ALT ([1]; Case 3, acute-on-chronic liver failure, oral TMZ plus antiviral treatment, admitted Jan. 21, reexamined February 5 (12 days), ALT 1386 u/L at admission) [u/L] | AST ([1]; Case 3, reexamined February 5, AST 1368 u/L at admission) [u/L] | ALT ([1]; Case 4, HBsAg positive person, oral TMZ 13 days plus hepatoprotective and antiviral treatment, ALT 599 u/L before) [u/L] | AST ([1]; Case 4, oral TMZ 13 days, AST 663 u/L before) [u/L] | prothrombin time activity (PTA) ([1]; Case 5, one week of oral TMZ, 26% at admission) [%] | AST ([1]; Case 5, one week of oral TMZ, AST 699 u/L at admission) [u/L] | FDG uptake / hepatic glucose metabolism of liver (PET-CT) [2] | integrity of mitochondrial structure in hepatocytes exposed to ammonia (electron microscope) (SD rats) | reduction of ammonia in hepatocytes (Chang liver cells) | ALT decrease (k, mathematical model) (liver failure patients [3]) | AST decrease (k, mathematical model) (liver failure patients [3]) | 30-day immortality rate (liver failure patients [4]; TMZ treatment group (TMZ+LOLA), TMZ 20 mg orally three times a day, 4 weeks, 44% with traditional therapeutic approach, FIG. 5) | 90-day immortality rate (liver failure patients [4]; TMZ treatment group (TMZ+LOLA), TMZ 20 mg orally three times a day, 4 weeks, 68% with traditional therapeutic approach, FIG. 5) [%] | serious adverse reaction during the clinical trial (liver failure patients [4]; liver failure patients, TMZ 20 mg three times a day)
1 | COc1ccc(CN2CCNCC2)c(OC)c1OC.Cl.Cl [TMZ, 1-[2,3,4-trimethoxybenzyl]piperazine dihydrochloride] | 41 | 68 | 95 | 130 | 52 | 76 | 85 | 66 | 79 | 48 | 77 | remarkably improved | nearly reversed the ammonia-induced mitochondria injury | greater effects compared to both LOLA treatment and TMZ+LOLA co-treatment | 259.4 | 362.53 | approximately 18% | 35 | no serious adverse reaction occurred
2 | Diisopropylamine Dichloroacetate [DCA] | – | – | – | – | – | – | – | – | – | – | – | – | – | – | 67.325 | 142.77 | – | – | –
